Where a SMILES comes first, the peptide text is derived from it. Bridges are numbered along the chain shown (N, C = ends). [ ]: non-standard residue; d: D form. The star is where a group is joined. Bip = N[C@@H](Cc1ccc(-c2ccccc2)cc1)C(=O)O; 4Pal = N[C@@H](Cc1ccncc1)C(=O)O; 2Thi = N[C@@H](Cc1cccs1)C(=O)O; Cha = N[C@@H](CC1CCCCC1)C(=O)O; Carboxymethyl = O=C(O)C*; Orn = NCCC[C@H](N)C(=O)O; Dab = NCC[C@H](N)C(=O)O; Dap = NC[C@H](N)C(=O)O
Target: T1, human PD-1 / PD-L1-Ig binding on Jurkat cell line over-expressing human PD-1 (Jurkat-PD-1) (Homo sapiens, UniProt Q15116)
T1 construct: expressed in transfected cells; host or cells: Jurkat
Test: Jurkat-PD-1 Cell Binding High-Content Screening Assay (CBA)
Format: cell-based
Details: Jurkat-PD-1 cells, PE-labeled PD-L1-Ig 20 nM final; read-out: Jurkat HPD1_PDL1 IC50
How it was run: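 Read-out: high-content imaging of PE-tagged PD-L1-Ig bound to Jurkat cells overexpressing human PD-1, after fixation with 4% paraformaldehyde and Hoechst 33342 nuclear staining. Ligand was used at 20 nM final for 1 hour, after a 2 h compound exposure at 37° C in serum-containing DMEM.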

T1 sequence (Q15116 25-288): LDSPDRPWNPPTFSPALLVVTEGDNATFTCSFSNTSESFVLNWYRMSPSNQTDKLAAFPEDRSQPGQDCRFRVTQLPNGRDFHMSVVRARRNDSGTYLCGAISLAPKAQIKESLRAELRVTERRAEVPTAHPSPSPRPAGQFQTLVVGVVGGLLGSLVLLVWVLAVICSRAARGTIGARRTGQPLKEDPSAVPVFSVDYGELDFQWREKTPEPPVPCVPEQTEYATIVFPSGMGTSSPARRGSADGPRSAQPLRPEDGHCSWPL

SMILES	IC50
CC(C)C[C@H]1NC(=O)[C@H](CCCN)NC(=O)[C@H](CCC(=O)O)NC(=O)[C@H](Cc2ccc(-c3ccccc3)cc2)NC(=O)[C@H](C(C)C)NC(=O)[C@H](Cc2cccs2)NC(=O)[C@H](CC(=O)O)NC(=O)[C@H](Cc2ccncc2)NC(=O)[C@H](CN)NC(=O)CSC[C@@H](C(=O)N[C@@H](C)C(N)=O)NC(=O)[C@H]([C@@H](C)O)NC(=O)[C@H](C(C)C)NC(=O)[C@H](CC2CCCCC2)NC(=O)[C@H](CCN)NC1=O [Compound 2201] ({CH2CO}-[Dap][4Pal]D[2Thi]V[Bip]E[Orn][dL][Dab][Cha]VTCA-NH2; thioether N-14)	0.0225 µM
CC(C)C[C@H]1NC(=O)[C@H](CCCN)NC(=O)[C@H](CCC(=O)O)NC(=O)[C@H](Cc2ccc(-c3ccccc3)cc2)NC(=O)[C@H](C(C)C)NC(=O)[C@H](Cc2cccs2)NC(=O)[C@H](CC(=O)O)NC(=O)[C@H](Cc2ccncc2)NC(=O)[C@H](Cc2ccc(OCC(=O)O)cc2)NC(=O)CSC[C@@H](C(=O)N[C@@H](C)C(N)=O)NC(=O)[C@H]([C@@H](C)O)NC(=O)[C@H](C(C)C)NC(=O)[C@H](CC2CCCCC2)NC(=O)[C@H](CCN)NC1=O [Compound 2202] ({CH2CO}-Y(Carboxymethyl)[4Pal]D[2Thi]V[Bip]E[Orn][dL][Dab][Cha]VTCA-NH2; thioether N-14)	0.0265 µM
CC(C)C[C@H]1NC(=O)[C@H](CCCN)NC(=O)[C@H](CCC(=O)O)NC(=O)[C@H](Cc2ccc(-c3ccccc3)cc2)NC(=O)[C@H](C(C)C)NC(=O)[C@H](Cc2cccs2)NC(=O)[C@H](CC(=O)O)NC(=O)[C@H](Cc2cccs2)NC(=O)[C@H](Cc2ccccc2)NC(=O)CSC[C@@H](C(=O)N[C@@H](C)C(N)=O)NC(=O)[C@H]([C@@H](C)O)NC(=O)[C@H](C(C)C)NC(=O)[C@H](CC2CCCCC2)NC(=O)[C@H](CCN)NC1=O [Compound 2204] ({CH2CO}-F[2Thi]D[2Thi]V[Bip]E[Orn][dL][Dab][Cha]VTCA-NH2; thioether N-14)	0.0244 µM

These reach a lower IC50. Values come first.

IC50	SMILES
0.0106 µM	CC(C)C[C@H]1NC(=O)[C@H](CCCN)NC(=O)[C@H](CCC(=O)O)NC(=O)[C@H](Cc2ccc(-c3ccccc3)cc2)NC(=O)[C@H](C(C)C)NC(=O)[C@H](Cc2cccs2)NC(=O)[C@H](CC(=O)O)NC(=O)[C@H](Cc2ccncc2)NC(=O)[C@H](CC(N)=O)NC(=O)CSC[C@@H](C(=O)N[C@@H](C)C(N)=O)NC(=O)[C@H]([C@@H](C)O)NC(=O)[C@H](C(C)C)NC(=O)[C@H](CC2CCCCC2)NC(=O)[C@H](CCN)NC1=O [Compound 2199] ({CH2CO}-N[4Pal]D[2Thi]V[Bip]E[Orn][dL][Dab][Cha]VTCA-NH2; thioether N-14)
0.0102 µM	CC(C)C[C@H]1NC(=O)[C@H](CCCN)NC(=O)[C@H](CCC(=O)O)NC(=O)[C@H](Cc2ccc(-c3ccccc3)cc2)NC(=O)[C@H](C(C)C)NC(=O)[C@H](Cc2cccs2)NC(=O)[C@H](CC(=O)O)NC(=O)[C@H](Cc2ccncc2)NC(=O)[C@H](Cc2ccccc2)NC(=O)CSC[C@@H](C(=O)N[C@@H](C)C(N)=O)NC(=O)[C@H]([C@@H](C)O)NC(=O)[C@H](C(C)C)NC(=O)[C@H](CC2CCCCC2)NC(=O)[C@H](CCN)NC1=O [Compound 2200] ({CH2CO}-F[4Pal]D[2Thi]V[Bip]E[Orn][dL][Dab][Cha]VTCA-NH2; thioether N-14)
0.0182 µM	CC(C)C[C@H]1NC(=O)[C@H](CCCN)NC(=O)[C@H](CCC(=O)O)NC(=O)[C@H](Cc2ccc(-c3ccccc3)cc2)NC(=O)[C@H](C(C)C)NC(=O)[C@H](Cc2cccs2)NC(=O)[C@H](CC(=O)O)NC(=O)[C@H](Cc2ccncc2)NC(=O)[C@H](Cc2ccncc2)NC(=O)CSC[C@@H](C(=O)N[C@@H](C)C(N)=O)NC(=O)[C@H]([C@@H](C)O)NC(=O)[C@H](C(C)C)NC(=O)[C@H](CC2CCCCC2)NC(=O)[C@H](CCN)NC1=O [Compound 2203] ({CH2CO}-[4Pal][4Pal]D[2Thi]V[Bip]E[Orn][dL][Dab][Cha]VTCA-NH2; thioether N-14)

From patent US20250163104A1, “MACROCYCLIC IMMUNOMODULATORS” (priority 2021, published 2025)
